Measured values published in patent US20110178104A1, “Anti-Heparin Compounds” (POLYMEDIX INC., priority 2010, published 2011).
≈ marks a conversion by molar mass, not a printed value. Where “and” joins values, the source holds several entries; their conditions need not be identical. Equal values may be shown once. Read-outs that look alike come from different tables or passages of the source. Starred links: 1 amine or outer side, 2 acyl side, 3 side chain; linkers in the order of their positions; H or OH if unused. Non-standard residues stand in square brackets, D forms with d. Residues, ends and D or L forms follow the SMILES beside them. *: point of attachment. NH(3-CONH2-4-OMe-phenyl) = COc1ccc(N*)cc1C(N)=O; 3Abz(6-OMe) = COc1ccc(N[*:1])cc1C(=O)[*:2]; X1 = O=C(O)COc1ccc(N[*:1])cc1C(=O)[*:2]

Tests used:
[1] = test system: tinzaparin; test: FXa amidolytic assay (Example 10), tinzaparin; details: read-out: Tinzap FXa EC50
Protocol: (§2) Two μl of test agent are added (range between 0.01 and 23 ug/ml) and incubated for 5 minutes at 23° C. Bovine Factor Xa was added to a final concentration of 0.636 nkat/mL and incubated for a further 10 minutes at 23° C.

[2] = test system: isolated human erythrocytes; test: cells; type: cell-based; details: Homo sapiens, Erythrocyte, 1 h, read-out: Hemolysis EC50
Protocol: Hemolysis assay: Cytotoxicity was also evaluated in a hemolysis assay using isolated human erythrocytes. Pooled whole human blood was centrifuged to separate the red blood cells (RBC). The isolated RBCs were rinsed and diluted in Tris-buffered saline (TBS buffer, pH 7.4) to obtain a 0.22% RBC stock suspension. Serial two-fold dilutions of test agent were assayed over a concentration range of 1000 to 0.48 μg/ml with shaking for 1 hour at 37° C. At the conclusion of the incubation time, samples were centrifuged and 30 μl of the supernatant was added to 100 μl H2O. OD405 measurements were read for hemoglobin concentration. The bee venom peptide melittin was used as a positive control. EC50 values were determined using a four parameter logistic equation: Y=Bottom+(Top-Bottom)/(1+10̂((LogEC50-X)*HillSlope)).

[3] = test system: enoxaparin; test: FXa amidolytic assay (Example 10), enoxaparin; details: read-out: Enox FXa EC50
Protocol: as §2

[4] = test system: fondaparinux; test: FXa amidolytic assay (Example 10), fondaparinux; details: read-out: Fondap FXa EC50
Protocol: as §2

[5] = test system: UFH; test: FXa amidolytic assay (Example 10), UFH; details: read-out: Heparin FXa uM EC50
Protocol: as §2

[6] = test system: Unfractionated heparin; test: aPTT clotting assay, UFH 0.4 U/mL in plasma (Example 10); type: biochemical
Protocol: aPTT clotting Assay: Unfractionated heparin was mixed with plasma at a final concentration of 0.4 U/mL (or concentration which increases aPTT time to between 120 and 300 seconds). […] The ACL Elite Hemostasis analyzer (Beckman Coulter™) was used to add aPTT reagent (HemosIL SynthASil) to supplemented plasma. Clotting was initiated by addition of CaCl2 and time to clot was recorded.

[7] = Cytotoxicity colorimetric assay, HepG2; type: cell-based, human; details: human, HepG2 cells, one hour in serum-free media
Protocol: (§1) This assay measures the bioreduction of a novel tetrazolium compound to a soluble formazan product by viable cells. HepG2 cells were seeded in 96 well plates at 3×10^4 cells/well in MEM medium with 10% fetal bovine serum (FBS) 24 hours prior to use. NIH/3T3 cells were seeded in 96 well plates at 2×10^4 cells/well in DMEM medium with 10% bovine calf serum (BCS) 24 hours prior to use. Cell monolayers were rinsed in serum-free media and incubated for one hour with test agent in serum-free media. After incubation, the media was replaced with serum supplemented media and live cells were measured using the Cell Titer 96 Aqueous […] Assay kit (Promega, Madison, Wis.). EC50 values were determined using a four parameter logistic equation: Y=Bottom+(Top-Bottom)/(1+10̂((LogEC50-X)*HillSlope)).

[8] = Cytotoxicity colorimetric assay, NIH/3T3; type: cell-based, mouse; details: mouse, NIH/3T3 cells, one hour in serum-free media
Protocol: as §1

[9] = tinzaparin 0.1 ug/ml, human antithrombin, bovine Factor Xa
[10] = enoxaparin 0.1 ug/ml, human antithrombin, bovine Factor Xa
[11] = fondaparinux 0.02 μg/mL, human antithrombin, bovine Factor Xa
[12] = UFH 0.03 units/mL, human antithrombin, bovine Factor Xa
[13] = unfractionated heparin 0.4 U/mL in plasma, aPTT clotting

SMILES | EC50 [1, 9] | EC50 ([2]; human RBC, 1 hour at 37° C.) [µg/mL] | EC50 [3, 10] | EC50 [4, 11] | EC50 [5, 12] [µM] | EC50 [6, 13] | EC50 at 1 h [7] [µg/mL] | EC50 at 1 h [8] [µg/mL] | EC50 [2] [µg/mL] | EC50 [1] [nM] | EC50 [3] [nM] | EC50 [4] [nM] | EC50 [5] [µM] | EC50 [6] [nM]
COc1ccc(NC(=O)[C@H](CCCCN)NC(=O)c2cc(NC(=O)[C@H](CCCCN)NC(=O)c3cc(NC(=O)[C@H](CCCCN)NC(=O)c4cc(NC(=O)[C@H](CCCCN)NC(=O)[C@@H](N)Cc5ccccc5)ccc4OC)ccc3OC)ccc2OC)cc1C(N)=O [Compound 357] (H-FK[3Abz(6-OMe)]K[3Abz(6-OMe)]K[3Abz(6-OMe)]K-{NH(3-CONH2-4-OMe-phenyl)}) | 118 nM | > 1000 | 248 nM | 2220 nM | 0.187 | 1420 nM |  |  |  |  |  |  |  | 
COc1cc(OC)c(C(=O)N[C@H]2CC[C@H](NC(=O)c3cc(C(=O)N[C@H]4CC[C@H](NC(=O)c5cc(C(=O)NCCCN)c(OC)cc5OC)CC4)c(OC)cc3OC)CC2)cc1C(=O)NCCCN [Compound 406] | 436 nM | 12.1 (≈ 12.8 µM) | 299 nM | 113 nM |  | 2460 nM | 209 (≈ 220 µM) | 215 (≈ 227 µM) |  |  |  |  |  | 
COc1ccc(NC(=O)[C@@H](CCCNC(=N)N)NC(=O)c2cc(NC(=O)[C@@H](CCCNC(=N)N)NC(=O)c3cc(NC(=O)[C@@H](CCCNC(=N)N)NC(=O)c4cc(NC(C)=O)ccc4OC)ccc3OC)ccc2OC)cc1C(N)=O [Compound 229] | 167 nM and 164 nM | ~500 (≈ 445 µM) | 215 nM and 207 nM | 587 nM and 322 nM |  | 1850 nM and 2270 nM | > 1000 |  |  |  |  |  |  | 
COc1ccc(NC(=O)[C@H](CCCCN)NC(=O)c2cc(NC(=O)[C@H](CCCCN)NC(=O)c3cc(NC(=O)[C@H](CCCCN)NC(=O)c4cc(NC(=O)[C@H](CCCCN)NC(=O)[C@@H](N)Cc5c[nH]c6ccccc56)ccc4OC)ccc3OC)ccc2OC)cc1C(N)=O [Compound 351] (H-WK[3Abz(6-OMe)]K[3Abz(6-OMe)]K[3Abz(6-OMe)]K-{NH(3-CONH2-4-OMe-phenyl)}) | 114 nM | > 1000 | 214 nM | 1110 nM | 0.194 | 1930 nM |  |  |  |  |  |  |  | 
COc1ccc(NC(=O)[C@H](CCCCN)NC(=O)c2cc(NC(=O)[C@H](CCCCN)NC(=O)c3cc(NC(=O)[C@H](CCCCN)NC(=O)c4cc(NC(=O)[C@H](CCCCN)NC(=O)[C@@H](N)Cc5ccccc5)ccc4OC)ccc3OC)ccc2OCC(=O)O)cc1C(N)=O [Compound 358] (H-FK[3Abz(6-OMe)]K[3Abz(6-OMe)]K[X1]K-{NH(3-CONH2-4-OMe-phenyl)}) | 184 nM | > 1000 | 324 nM | 1600 nM | 0.314 | 1930 nM |  |  |  |  |  |  |  | 
COc1ccc(NC(=O)[C@H](CCCCN)NC(=O)c2cc(NC(=O)[C@H](CCCCN)NC(=O)c3cc(NC(=O)[C@H](CCCCN)NC(=O)c4cc(NC(=O)[C@H](CCCCN)NC(=O)Cc5ccccc5)ccc4OC)ccc3OC)ccc2OCC(=O)O)cc1C(N)=O [Compound 356] | 100 nM |  | 127 nM | 512 nM | 0.204 | 1890 nM |  |  | > 1000 |  |  |  |  | 
COc1ccc(NC(=O)[C@@H](CCCNC(N)=O)NC(=O)c2cc(NC(=O)[C@@H](CCCNC(N)=O)NC(=O)c3cc(NC(=O)[C@@H](CCCNC(=N)N)NC(=O)c4cc(NC(C)=O)ccc4OC)ccc3OC)ccc2OCC(=O)O)cc1C(=O)N[C@H](Cc1c[nH]c2ccccc12)C(N)=O [Compound 333] | > 5000 nM | 1000 (≈ 737 µM) | > 5000 nM | > 5000 nM | > 5 | > 10000 nM |  |  |  |  |  |  |  | 
COc1ccc(NC(=O)[C@H](CCCCN)NC(=O)c2cc(NC(=O)[C@H](CCCCN)NC(=O)c3cc(NC(=O)[C@H](CCCCN)NC(=O)c4cc(NC(=O)[C@@H](N)CCCCN)ccc4OC)ccc3OC)ccc2OC)cc1C(=O)O [Compound 250] | 1290 nM |  | 3280 nM | > 10000 nM |  | 2730 nM | > 1000 | > 1000 |  |  |  |  |  | 
COc1ccc(NC(=O)[C@@H](CCCNC(=N)N)NC(=O)c2cc(NC(=O)[C@@H](CCCNC(=N)N)NC(=O)c3cc(NC(=O)[C@@H](CCCNC(=N)N)NC(=O)c4cc(NC(C)=O)ccc4OC)ccc3OC)ccc2OCC(=O)O)cc1C(=O)N[C@H](Cc1c[nH]c2ccccc12)C(=O)O [Compound 306] | 199 nM and 367 nM | ~1000 (≈ 738 µM) | 198 nM and 338 nM |  | 0.236 | > 10000 nM | ~1000 (≈ 738 µM) |  |  |  |  |  |  | 
COc1ccc(NC(=O)[C@H](CCCNC(=N)N)NC(=O)c2cc(NC(=O)[C@H](CCCNC(=N)N)NC(=O)c3cc(NC(=O)[C@H](CCCNC(=N)N)NC(=O)c4cc(NC(C)=O)ccc4OC)ccc3OC)ccc2OC)cc1C(=O)N[C@@H](Cc1c[nH]c2ccccc12)C(=O)O [Compound 310] | 141 nM | ~1000 (≈ 763 µM) | 119 nM | 98 nM | 0.242 | > 10000 nM |  |  |  |  |  |  |  | 
CNCNC(=O)c1cccc(C(=O)N[C@H]2CC[C@H](NC(=O)c3cc(C(=O)N[C@H]4CC[C@H](NC(=O)c5cccc(C(=O)NCCN)c5)CC4)c(OC)cc3OC)CC2)c1 [Compound 366] | > 5000 nM |  | > 5000 nM | > 10000 nM | 15.5 | > 10000 nM |  |  |  |  |  |  |  | 
COc1cc(OC)c(C(=O)N[C@H]2CC[C@@H](NC(=O)c3cc(C(=O)NCCN)c(OCCCCCN)cc3OCCCCCN)CC2)cc1C(=O)N[C@H]1CC[C@@H](NC(=O)c2cc(C(=O)NCCN)c(OCCCCCN)cc2OCCCCCN)CC1 [Compound 367] | 106 nM |  | 42 nM | 514 nM | 0.085 | 1270 nM |  |  |  |  |  |  |  | 
COc1cc(OC)c(C(=O)N[C@H]2CC[C@@H](NC(=O)c3cc(C(=O)N[C@H]4CC[C@@H](NC(=O)c5cc(C(=O)NCCCN)c(OC)cc5OC)CC4)c(OC)cc3OC)CC2)cc1C(=O)NCCCN [Compound 404] | 445 nM |  | 350 nM | 325 nM |  | 2570 nM | > 1000 | 1100 (≈ 1160 µM) |  |  |  |  |  | 
COc1cc(OC)c(C(=O)NCCNC(=O)c2cc(C(=O)NCCN)c(OC)cc2OC)cc1C(=O)O [Compound 387] | > 5000 nM |  | > 5000 nM | > 10000 nM | > 20 | > 10000 nM |  |  |  |  |  |  |  | 
COc1ccc(NC(=O)[C@@H](CCCNC(N)=O)NC(=O)c2cc(NC(=O)[C@@H](CCCNC(=N)N)NC(=O)c3cc(NC(=O)[C@@H](CCCNC(N)=O)NC(=O)c4cc(NC(=O)[C@H](N)CCCNC(N)=O)ccc4OC)ccc3OC)ccc2OC)cc1C(N)=O [Compound 371] | 197 nM |  | 252 nM | > 10000 nM | > 10 | 3260 nM |  |  |  |  |  |  |  | 
COc1ccc(NC(=O)[C@@H](CCCNC(=N)N)NC(=O)c2cc(NC(=O)[C@@H](CCCNC(N)=O)NC(=O)c3cc(NC(=O)[C@@H](CCCNC(=N)N)NC(=O)c4cc(NC(=O)[C@H](N)CCCNC(N)=O)ccc4OC)ccc3OC)ccc2OC)cc1C(N)=O [Compound 378] |  |  |  |  |  |  |  |  |  | 73 | 110 | 2330 | 0.49 | 2010
NCCCC[C@H](NC(=O)c1cccc(NC(=O)[C@H](CCCCN)NC(=O)c2cccc(NC(=O)[C@H](CCCCN)NC(=O)c3cccc(NC(=O)[C@@H](N)CCCCN)c3)c2)c1)C(=O)Nc1cccc(C(N)=O)c1 [Compound 368] | 3390 nM |  | 11000 nM | > 10000 nM | 3.69 | 9250 nM |  |  |  |  |  |  |  | 
COc1ccc(NC(=O)[C@@H](CCCNC(N)=O)NC(=O)c2cc(NC(=O)[C@@H](CCCNC(=N)N)NC(=O)c3cc(NC(=O)[C@@H](CCCNC(=N)N)NC(=O)c4cc(NC(C)=O)ccc4OC)ccc3OC)ccc2OCC(=O)O)cc1C(=O)N[C@H](Cc1c[nH]c2ccccc12)C(N)=O [Compound 332] | > 5000 nM | 1000 (≈ 738 µM) | > 5000 nM | > 5000 nM | > 5 | > 10000 nM |  |  |  |  |  |  |  | 
